The text below walks through data of patent US5959113A, “Imidazol derivatives” (Hoffmann-La Roche Inc., priority 1994, dated 1999).

Test [1] concerns mouse hair follicles. In words: Stimulation of cell proliferation in cultured mouse hair follicles. It is filed as cell-based. As for the experimental part:
Stimulation of cell proliferation in cultured mouse hair follicles
Mouse hair follicles are isolated and cultured according to the method described by Buhl et al., J. Invest. Dermatol. 92, 315 (1989). Whisker parts are removed from CD-1 mice aged 4 days and the hair follicles are carefully separated from surrounding tissue under the microscope. Hair follicles are cultured in M199 medium which contains 20% FBS and the cell proliferation is determined from the incorporation of [^3 H]-thymidinein DNA. The test compounds are dissolved in DMSO and added in serial dilutions in the range of 1×10^-8 to 1×10^-6 M at the beginning of the cultivation. After 1 day 5 μCi/ml of [^3 H]-thymidine are added to the culture medium and the follicles are incubated for a further 3 days. The hair follicles are then washed with phosphate-buffered saline solution in order to remove non-incorporated radioactivity and the DNA is solubilized by incubation with alkali overnight. The radioactivity incorporated into the follicular DNA is then measured using a liquid scintillation counter.

Test [2] has as its target protein kinase C (PKC). In words: Inhibition of protein kinase C (PKC). In kind it is biochemical. Particulars: partially purified PKC from hog brain, histone H1, ATP 10 μM, 2 min at 32 °C; read-out: IC50 Isolated enzyme PCK. As for the experimental part:
Inhibition of protein kinase C (PKC)
The activity of PKC is measured by measuring the transfer of ^32 P-labelled phosphate from ^32 P-γ-ATP (10 μM) to the substrate histone H1 (200 μg/ml) using partially purified PKC from hog brain (DEAE chromatography according to U. Kikkawa et al., Methods Enzymol. 99, 288, 1983). PKC is activated by phospholipid vesicle prepared by sonicating a mixture of 0.05 ml of phosphatidylserine (10 mg/ml) and 0.005 ml of diolein (10 mg/ml) in 5 ml of Tris HCl buffer (20 mM, pH 7.4). The compounds are tested in DMSO/buffer at a concentration of 0.001-100 μM. The test is started by adding the enzyme, takes 2 minutes at 32° C. and is terminated by adding 20% trichloroacetic acid (containing 1% SDS and 1% sodium pyrophosphate). The precipitated protein with the labelled histone is separated from excess ATP by filtration over a nitrocellulose membrane filter. The radioactivity on the filter is measured in a scintillation counter. The inhibitory activity of the test compound is expressed as the micromolar concentration which is required for 50% inhibition (IC50 [μM]).
(§1) The inhibition of selected protein kinases in vitro and the inhibition of cell proliferation in HaCaT-cells by these compounds are set forth in the following Table.

The target in test [3] is cAMP-dependent protein kinase (PKA). In words: Inhibition of cAMP-dependent protein kinase (PKA). In kind it is biochemical. To be noted: partially purified PKA from hog brain, histone H1, ATP 10 μM, 2 min at 32 °C; read-out: IC50 Isolated enzyme PKA. As to the method: Inhibition of cAMP-dependent protein kinase (PKA)
The activity of PKA is measured by measuring the transfer of ^32 P-labelled phosphate from ^32 P-γ-ATP (10 μM) to the substrate histone H1 (333 μg/ml) using partially purified PKA from hog brain (DEAE chromatography according to U. Kikkawa et al., Methods Enzymol. 99, 288, 1983). PKA is activated by 2 μM of cAMP in Tris HCl buffer (20 mM, pH 7.4). The compounds are tested in DMSO/buffer at a concentration of 0.001-100 μM. The test is started by adding the enzyme, takes 2 minutes at 32° C. and is terminated by adding 20% trichloroacetic acid (containing 1% SDS and 1% sodium pyrophosphate). The precipitated protein, which contains the radiolabelled histone, is separated from excess ATP by filtration through a nitrocellulose membrane filter. The radioactivity on the filter is determined in a scintillation counter. The inhibitory activity of the test compounds is expressed as the micromolar concentration which is required for 50% inhibition (IC50 [μM]).
as §1

Test [4] relates to HaCaT cells. Briefly: Inhibition of HaCaT cell proliferation. It is filed as cell-based. To be noted: Homo sapiens, [3H]-thymidine incorporation, 48 h at 37 °C. As for the experimental part: Inhibition of HaCaT cell proliferation
HaCaT is a spontaneous immortalized human keratinoycte cell line (Boukamp et al. 1988) which has been used many times as a model system for hyperproliferative keratinoyctes. The incorporation of [^3 H]-thymidine was used to quantify the growing cells in the S phase of the cell cycle. The cells were cultivated with a 3:1 mixture of DMEM/F12 medium which had been supplemented with 5% FCS, EGF (10 μg/l), hydrocortisone (400 μg/l), cholera toxin (8.5 μg/l), insulin (5 μg/l), L-glutamine (2 mM) and penicillin/streptomycin. 200 μl of medium were placed in microtitre plates such that each sample contained 5000 cells. The test compounds were added in serial dilutions in the range of 1×10^-8 M to […] at the beginning of the cultivation. The cells were incubated at 37° C. for 48 hours. For the last 6 hours [^3 H]-thymidine was added ([…]). After digesting the cells with trypsin the amount of incorporated radioactivity was quantified with a liquid scintillation counter.
as §1

Test [5] has as its target T1, EGF-receptor tyrosine kinase (Homo sapiens, UniProt P00533).
T1 construct: A membrane fraction from human A431 cells is used as the enzyme; endogenous in cells; host or cells: A431 cells, membrane fraction (Thom et al., Biochem. J. 168, 187 (1977))
Briefly: Inhibition of EGF-receptor Tyrosine Kinase. In kind it is biochemical. Particulars: EGF-R from A431 cell membranes, 30 °C, 30 min, ATP 10 μM, RR-src peptide 0.75 mM; read-out: IC50 Isolated enzyme EGF-R. As for the experimental part:
Inhibition of EGF-receptor Tyrosine Kinase
The activity of EGF-receptor tyrosine kinase is determined by measuring the transfer of ^32 P-labelled phosphate from ^32 P-γ-ATP (10 μM) to the substrate RR-scr peptide* (0.75 mM). A membrane fraction from human A431 cells is used as the enzyme. It is isolated according to Thom et al., Biochem. J. 168, 187 (1977) and stored at -75° C. (4-6 mg protein/ml). The compounds are tested in 10% DMSO in a concentration of 0.001-100 μM. The incubation is carried out at 30° C. for a period of 30 minutes in Tris buffer (25 mM, pH 7.4) which contains magnesium acetate (30 mM), sodium vanadate (0.5 mM), 0.5% BSA and 0.05% Triton X-100. The membranes are pre-incubated with 2 μM of EGF at 4° C. for 90 minutes. The test is started by adding the enzyme (2 μg of membrane protein) and terminated by adding ice-cold KH2 PO4 (1M, pH 3.0). After centrifugation the labelled peptide is separated from excess ATP in the supernatant by reversed phase HPLC. The peptide fraction is collected and the radioactivity is measured in a standard β-counter or on-line with a radiometer (Berthold). The inibitory activity of the test compound is expressed as the mikromolar concentration which is required for 50% inhibition (IC50 [μM]).
*RR-src peptide=[Arg-Arg-Leu-Ile-Glu-Asp-Ala-Glu-Tyr-Ala-Ala-Arg-Gly]
as §1

Test [6] concerns the target T2, p56^Ick tyrosine kinase (Homo sapiens, UniProt P06239).
T2 construct: made in house; host or cells: E. coli
In words: Inhibition of p56^Ick tyrosine kinase. It is filed as biochemical. Particulars: human recombinant p56lck, 30 °C, 30 min, ATP 10 μM, RR-src peptide 0.75 mM; read-out: IC50 Isolated enzyme p56^lck. As for the experimental part: Inhibition of p56^Ick tyrosine kinase
The activity of p56^Ick tyrosine kinase is determined by measuring the transfer of ^32 P-labelled phosphate from ^32 P-γ-ATP (10 μM) to the substrate RR-src peptide (0.75 mM). Human recombinant p56^Ick (expressed in E. coli) is used as the enzyme.
It is purified from the soluble fraction by means of a monoclonal antibody column and stored at -75° C. The compounds are tested in 10% DMSO in a concentration of 0.001-100 μM, The incubation is carried out at 30° C. for a period of 30 minutes in HEPES buffer (50 mM, pH 6.9) which contains manganese chloride (11 mM) and 0.5% BSA. The test is started by adding the enzyme and terminated by adding ice-cold KH2 PO4 (1M, pH 3.0). After centrifugation the radiolabelled peptide is separated from excess ATP in the supernatant by reversed phase HPLC. The peptide fraction is collected and the radioactivity is determined in a standard β- counter or on-line with a radiometer (Berthold). The inhibitory activity of the test compound is expressed as the micromolar concentration which is required for 50% inhibition (IC50 [μM]).
as §1

T2 sequence (P06239 whole entry): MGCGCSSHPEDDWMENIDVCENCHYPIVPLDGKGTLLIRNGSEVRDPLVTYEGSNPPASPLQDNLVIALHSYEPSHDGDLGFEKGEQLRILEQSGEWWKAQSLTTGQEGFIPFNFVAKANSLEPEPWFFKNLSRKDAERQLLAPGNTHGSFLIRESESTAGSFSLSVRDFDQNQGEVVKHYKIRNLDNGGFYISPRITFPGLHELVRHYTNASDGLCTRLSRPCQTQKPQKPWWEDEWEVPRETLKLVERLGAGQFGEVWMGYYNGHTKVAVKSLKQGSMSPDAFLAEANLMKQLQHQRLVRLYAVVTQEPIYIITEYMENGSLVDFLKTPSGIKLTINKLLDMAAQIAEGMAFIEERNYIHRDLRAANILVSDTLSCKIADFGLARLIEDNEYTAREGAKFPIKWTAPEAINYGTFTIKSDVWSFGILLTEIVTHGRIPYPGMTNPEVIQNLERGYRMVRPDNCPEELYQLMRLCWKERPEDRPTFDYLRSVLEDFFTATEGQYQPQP
T1 sequence (P00533 25-1210): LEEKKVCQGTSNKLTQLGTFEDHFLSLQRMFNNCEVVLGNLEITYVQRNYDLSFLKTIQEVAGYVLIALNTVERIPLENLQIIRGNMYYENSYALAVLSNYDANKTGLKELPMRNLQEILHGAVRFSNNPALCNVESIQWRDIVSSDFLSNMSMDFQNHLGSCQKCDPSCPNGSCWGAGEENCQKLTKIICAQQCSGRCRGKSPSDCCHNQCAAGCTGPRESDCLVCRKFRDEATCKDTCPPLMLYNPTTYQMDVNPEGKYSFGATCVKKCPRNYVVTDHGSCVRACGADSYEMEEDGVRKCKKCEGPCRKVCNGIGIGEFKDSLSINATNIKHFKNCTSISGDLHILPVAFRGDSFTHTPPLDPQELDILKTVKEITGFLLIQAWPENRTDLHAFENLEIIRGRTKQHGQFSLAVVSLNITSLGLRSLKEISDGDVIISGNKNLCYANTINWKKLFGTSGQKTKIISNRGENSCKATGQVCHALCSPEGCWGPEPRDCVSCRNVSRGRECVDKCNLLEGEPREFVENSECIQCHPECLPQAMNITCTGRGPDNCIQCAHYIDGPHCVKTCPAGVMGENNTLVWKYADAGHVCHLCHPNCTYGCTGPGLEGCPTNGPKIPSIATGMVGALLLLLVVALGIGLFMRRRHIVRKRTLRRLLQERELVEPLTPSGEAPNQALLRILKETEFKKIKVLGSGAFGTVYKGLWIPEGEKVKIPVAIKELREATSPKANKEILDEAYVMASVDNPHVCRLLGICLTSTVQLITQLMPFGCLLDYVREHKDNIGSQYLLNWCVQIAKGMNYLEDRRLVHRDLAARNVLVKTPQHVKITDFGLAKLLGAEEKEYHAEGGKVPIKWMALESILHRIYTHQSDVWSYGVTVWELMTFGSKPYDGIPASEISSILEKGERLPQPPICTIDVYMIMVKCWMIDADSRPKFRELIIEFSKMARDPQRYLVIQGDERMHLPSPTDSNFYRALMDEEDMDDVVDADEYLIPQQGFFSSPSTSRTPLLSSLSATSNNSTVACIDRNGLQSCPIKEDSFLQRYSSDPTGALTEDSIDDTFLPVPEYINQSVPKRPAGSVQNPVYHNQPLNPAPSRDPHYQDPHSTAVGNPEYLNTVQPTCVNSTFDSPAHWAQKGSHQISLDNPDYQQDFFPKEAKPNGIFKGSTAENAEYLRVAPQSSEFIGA

Turning to `Cc1cc(C)c(-c2nc(-c3ccncc3)c(-c3ccc(Cl)cc3)[nH]2)c(C)c1` [Example 1, 4-[5-(4-chlorophenyl)-2-(2,4,6-trimethyphenyl)imidazol-4-yl]pyridine], the activity at 0.3 µM in test [1] (96 h, at 0.3 μM, [3H]-thymidine incorporation, CD-1 mouse whisker follicles, read-out: maximum DNA synthesis value (compared with controls)) is 211 ± 17%. The EC50 in test [1] ([3H]-thymidine incorporation, CD-1 mouse whisker follicles, read-out: concentration which resulted in a half-maximum stimulation of the DNA synthesis (EC50 value)) amounted to 100 nM. In test [1] (mouse hair follicle culture), the “activity in this culture system compared with known hypotrichotic agents” value is “exceeded that of known hypotrichotic agents”. Further, the IC50 (in general, the concentration that gives 50% inhibition) was > 100000 nM in test [2]; 6300 nM in test [3]; 2000 nM in test [4]; 340 nM in test [5]; 2200 nM in test [6].
